According to patent US12364669B2, “Device and method for transdermal delivery of cannabidiol” (Remy Biosciences, Inc., priority 2020, dated 2025):

Test: Diffusion of CBD from transdermal devices through a human cadaver epidermis, Franz Diffusion Cell method
Format: in vitro ADME
Conditions: Example 2, FIG. 4; reservoir device, 5 percent CBD in ethanol/water 70/30; with hydrophilic porous membrane 24 versus membrane omitted
Description: The effects of using a hydrophobic, porous membrane versus a hydrophilic, porous membrane (such as membrane 24) in reservoir transdermal device 20 are studied in this example. […] The backing 22 is an occlusive backing film (PE/PET from 3M). Hydroxy ethyl cellulose is added to the solution to yield a thixotropic preparation 27. A volume of 300 microliters of the preparation is placed in the reservoir 26.
The skin adhesive 30 is a BIO PSA 7-4301 adhesive coated to a thickness of 15 g/m^2 on side 36 of membrane 24. An overlay adhesive patch is placed over the reservoir which forms an island in the middle. The overlay assures adhesion of the reservoir to the skin. The device 20 is contacted with a human cadaver epidermis, and diffusion through the epidermis is measured using the Franz Diffusion Cell method.
In a first run, membrane 24 is a Lydall® Evopor™ 5E02A, hydrophilic, microporous membrane (of 0.2 micrometers pore size). […]
The device 20 is contacted with a human cadaver epidermis, and diffusion through the epidermis is measured using the Franz Diffusion Cell method. […]
This example is conducted using three reservoir transdermal devices such as those of Example 1, with each having the hydrophilic, porous membrane described therein. […] Diffusion through a human cadaver epidermis is measured using the Franz Diffusion Method. […]

C=C(C)[C@@H]1CCC(C)=C[C@H]1c1c(O)cc(CCCCC)cc1O [CBD, Cannabidiol]
permeability of CBD through the skin (cumulative flux versus time): the same regardless of whether the membrane 24 is provided
